Molecules are shown by their SMILES.

The term IC50 denotes the concentration that gives 50% inhibition.

Data set [1] in a line: Ultraviolet absorbing properties compared with p-aminobenzoic acid. It counts as physicochemical. Details: UV max: unit not given here. The following applies: for α: ultraviolet absorption. As for the experimental part: The ultraviolet absorbing properties of the compounds of the present invention is generally shown by a comparison with p-aminobenzoic acid which is the active ingredient in most commercial sunscreens. Such properties are within the ultraviolet absorbing ranges of […] range critical to effectiveness. A representative compound of the invention is compared to p-aminobenzoic acid in the following Table.

Data set [2] deals with T1, 5-lipoxygenase (Rattus norvegicus, UniProt P12527).
T1 construct: host or cells: RBL-1 (rat basophilic leukemia)
T1 sequence (P12527 1-673): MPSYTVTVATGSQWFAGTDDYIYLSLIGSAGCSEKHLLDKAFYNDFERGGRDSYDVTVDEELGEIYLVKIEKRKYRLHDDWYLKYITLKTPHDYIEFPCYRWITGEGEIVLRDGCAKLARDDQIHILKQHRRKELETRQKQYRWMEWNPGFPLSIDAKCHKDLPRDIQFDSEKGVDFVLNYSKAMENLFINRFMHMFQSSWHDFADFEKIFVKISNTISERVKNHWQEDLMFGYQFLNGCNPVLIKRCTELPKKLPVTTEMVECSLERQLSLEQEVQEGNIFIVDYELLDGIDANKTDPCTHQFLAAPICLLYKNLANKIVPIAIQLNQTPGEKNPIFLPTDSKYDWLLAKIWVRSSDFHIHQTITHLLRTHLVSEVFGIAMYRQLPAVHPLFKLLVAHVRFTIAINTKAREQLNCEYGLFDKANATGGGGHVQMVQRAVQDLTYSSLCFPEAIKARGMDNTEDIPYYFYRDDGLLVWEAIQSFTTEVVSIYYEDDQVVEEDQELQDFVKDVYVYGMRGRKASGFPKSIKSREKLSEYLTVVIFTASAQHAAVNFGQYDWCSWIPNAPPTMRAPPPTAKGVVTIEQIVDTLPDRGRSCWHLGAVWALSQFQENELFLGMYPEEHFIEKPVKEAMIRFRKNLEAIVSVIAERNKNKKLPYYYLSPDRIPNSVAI
Nature of the data set: ARBL RBL-1 whole cell 5-lipoxygenase assay (LTB4 by RIA). It counts as cell-based. The following applies: RBL-1 intact cells, 5 μM A23187, LTB4. On the procedure:
(§1) ARBL/ARBC Whole Cell 5-Lipoxygenase and Cyclooxygenase Assays
(§2) The rat basophilic leukemia cell line (RBL-1) was obtained from the American Type Culture Collection (Rockville, Md.).
(§3) Radioimmuno assay (RIA) kits of LTB4 and PGF2α were obtained from Amersham (Arlington Heights, Ill.) and Seragen (Boston, Mass.) respectively.
(§4) All tissue culture media were obtained from GIBCO (Grand Island, N.Y.).
(§5) RBL-1 cells were grown in culture (suspension) in Eagle's minimum essential medium supplemented with 12% fetal bovine serum and 1:100 antibiotic-antimycotic mixture at 37° C. in an incubator supplied with air-5% carbon dioxide. Cells were harvested by centrifugation. They were washed with cold phosphate buffered saline pH 7.4 (PBS; NaCl, 7.1 g; Na2 HPO4, 1.15 g; KH2 PO4, 0.2 g; and KCl, 0.2 g/L). […] Calcium ionophore A23187 (5 μM) was added and cells were incubated for seven minutes at 37° C. The reaction was stopped by chilling the tubes in ice for ten minutes. Cells were separated by centrifugation and the supernatant was stored at -20°. Aliquots (100 μl) were analyzed for LTB4 and PGF2α using radioimmuno assay kits as provided by the supplier.

Data set [3] addresses T2, cyclooxygenase (Rattus norvegicus, UniProt Q63921).
T2 construct: host or cells: RBL-1 (rat basophilic leukemia)
T2 sequence (Q63921 27-602): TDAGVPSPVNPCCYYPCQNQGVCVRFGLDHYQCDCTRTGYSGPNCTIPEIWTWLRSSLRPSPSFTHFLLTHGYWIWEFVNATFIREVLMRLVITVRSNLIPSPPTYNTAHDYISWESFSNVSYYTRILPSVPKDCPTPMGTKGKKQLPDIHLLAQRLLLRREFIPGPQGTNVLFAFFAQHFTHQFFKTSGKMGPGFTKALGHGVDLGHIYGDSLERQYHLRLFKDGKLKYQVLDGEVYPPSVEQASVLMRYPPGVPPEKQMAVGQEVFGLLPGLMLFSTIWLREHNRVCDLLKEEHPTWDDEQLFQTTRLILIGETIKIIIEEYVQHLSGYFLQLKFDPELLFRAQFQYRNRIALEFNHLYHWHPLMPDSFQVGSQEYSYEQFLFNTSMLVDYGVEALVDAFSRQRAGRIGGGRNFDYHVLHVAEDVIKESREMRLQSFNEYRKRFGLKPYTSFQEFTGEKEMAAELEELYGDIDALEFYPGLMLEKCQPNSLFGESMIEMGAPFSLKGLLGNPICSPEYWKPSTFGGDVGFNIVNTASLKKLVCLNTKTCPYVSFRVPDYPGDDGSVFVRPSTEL
Put plainly: ARBC RBL-1 whole cell cyclooxygenase assay (PGF2α by RIA). It counts as cell-based. The following applies: RBL-1 intact cells, 5 μM A23187, PGF2α. As for the experimental part: as §1, §2, §3, §4, §5

In data set [1], `COc1cc(C=Cc2cc(C)[nH]n2)ccc1O` [Example 5, 3-[β-(4'-Hydroxy-3'-methoxyphenyl)ethenyl]-5-methyl-pyrazole] returned a UV max of 292 and a α of 111.1.

Take `COC(=O)C(=Cc1cc(C(C)(C)C)c(O)c(C(C)(C)C)c1)c1cc(C)no1` [Example 46, 5-[α-Carbomethoxy-β-(4'-hydroxy-3',5'-bis(1,1-dimethylethyl)phenyl)ethenyl]-3-methylisoxazole]: the figures for the IC50 in data set [2] and in data set [3] were 10 µM and 2 µM, respectively.

Regarding `Cc1cc(C=Cc2cc(Br)c(O)c(Br)c2)no1` [Example 54B], the IC50 in data set [2] was determined as 3.3 µM; in data set [3], 4.2 µM.

With `Cc1cc(C=Cc2cc(Br)c(O)c(Br)c2)n[nH]1` [Example 58, 3-[β-(4'-Hydroxy-3',5'-dibromophenyl)ethenyl]-5-methylpyrazole], the half-inhibitory concentration (IC50) in data set [2] came to 5.7 µM; in data set [3], 14.5 µM.

In data set [1], `Nc1ccc(C(=O)O)cc1` [p-aminobenzoic acid, reference compound] had a α of 132.2.

The values are drawn from patent US4924002A, “Novel process for the preparation of pyrazoles from isoxazoles” (Warner-Lambert Company, priority 1989, dated 1990).
